Columns and labels:
[1] = tested on: monoclonal anti-methamphetamine antibody; assay: Competitive inhibition ELISA (CELIA) on BSA-pseudoephedrine coated wells; format: binding, mouse; details: for Detection by the competitive ELISA (in words): summary of Table 1
Method: The conjugate was evaluated using ELISA. 96-well microtitre plates (Costar) were coated with BSA-pseudoephedrine (5 :g/ml in 0.05 M sodium carbonate/bicarbonate buffer, pH 9.6, 100 :l/well) overnight at room temperature. […] Two fold dilutions of monoclonal anti-methamphetamine antibody (East coast Biological, USA) in wash buffer containing 10 mg/ml BSA (assay buffer) were added to the wells (100 :l/well) and the plate incubated at room temperature for 30 minutes. The wells were washed 3 times with wash buffer and horseradish peroxidase-labelled goat anti-mouse IgG antibody (product number A-4416, Sigma Co., Poole, England) was added to the wells (1/2000 dilution in assay buffer, 100 :l/well) and incubation continued for a further 30 minutes. […] After 30 minutes incubation, colour development was stopped by the addition of 1 M sulphuric acid (100 :l/well). Colour intensity was measured at 450 nm.
Competitive ELISA was then set up to evaluate the cross-reactivity of various drugs with methamphetamine. […] The designer ecstasy drugs MDMA and MBDB were well detected by this assay.

[2] = tested on: gold-labelled mouse anti-methamphetamine antibody; assay: Lateral flow immunochromatography test for methamphetamine/ecstasy in spiked oral fluid; details: for Lateral flow test result (in words): Table 2, at the concentrations tested; for Lateral flow test result: cut off set at ≧15 ng/ml (+)-methamphetamine
[3] = compound at 15 ng/ml in spiked saliva, Cozart Rapiscan reader
[4] = compound at 10,000 ng/ml, read off (+)-methamphetamine or ecstasy standard curve
[5] = compound at 10,000 ng/ml in spiked saliva

| Compound | % Cross-reactivity ([1]; compound at 10,000 ng/ml) | Concentration determined by ELISA [1, 4] | Lateral flow test result [2, 5] | other results |
| --- | --- | --- | --- | --- |
| CCC(Cc1ccc2c(c1)OCO2)NC (racemic) [MBDB, (+/−)-N-methyl-1-(3,4-methylenedioxyphenyl)-2-butanamine] | – | – | – | % Cross-reactivity ([1]; compound at 25 ng/ml): 75.04%; Concentration determined by ELISA ([1]; compound at 25 ng/ml): 18.76 ng/mL; % Cross-reactivity ([1]; compound at 100 ng/ml): 66.43%; Concentration determined by ELISA ([1]; compound at 100 ng/ml): 66.43 ng/mL; % Cross-reactivity ([1]; compound at 500 ng/ml): 87.78%; Concentration determined by ELISA ([1]; compound at 500 ng/ml): 438.88 ng/mL; Detection by the competitive ELISA (in words) [1]: well detected; Lateral flow test result (in words) [2]: picked up; Lateral flow test result [2, 3]: positive |
| CC(N)Cc1ccccc1 (single isomer, unassigned; (+)) [(+)-amphetamine] | 0.379% | 37.97 ng/mL | negative | % Cross-reactivity ([1]; compound at 10,000 ng/ml, listed as amphetamine): < 0.4% |
| CN[C@H](C)[C@@H](O)c1ccccc1 [(+)-ephedrine] | 0.08% | 8.37 ng/mL | negative | – |
| CN[C@@H](C)[C@H](O)c1ccccc1 [(−)-ephedrine] | 0.05% | 5.05 ng/mL | negative | – |
| CN(C)CCC(c1ccc(Cl)cc1)c1ccccn1 (stereo not drawn) [Chlorpheniramine] | – | – | negative | – |
| CCNC(C)Cc1cccc(C(F)(F)F)c1 (stereo not drawn) [Fenfluramine] | – | – | negative | – |
| CNC1(c2ccccc2Cl)CCCCC1=O (stereo not drawn) [Ketamine] | – | – | negative | – |
| CC(N)Cc1ccc2c(c1)OCO2 (stereo not drawn) [MDA, 3,4-methylenedioxyamphetamine] | 0.219% | 21.94 ng/mL | negative | – |
| CNC(C)Cc1ccc2c(c1)OCO2 (stereo not drawn) [MDMA (Ecstasy), 3,4-methylenedioxymethamphetamine] | – | – | – | % Cross-reactivity ([1]; compound at 15 ng/ml): 55.0%; Concentration determined by ELISA ([1]; compound at 15 ng/ml): 8.26 ng/mL; % Cross-reactivity ([1]; compound at 50 ng/ml): 48.1%; Concentration determined by ELISA ([1]; compound at 50 ng/ml): 24.09 ng/mL; % Cross-reactivity ([1]; compound at 100 ng/ml): 53.19%; Concentration determined by ELISA ([1]; compound at 100 ng/ml): 53.19 ng/mL; Detection by the competitive ELISA (in words) [1]: well detected; Lateral flow test result (in words) [2]: picked up; Lateral flow test result ([2]; compound at 30 ng/ml in spiked saliva): positive |
| CN(C)CCC(c1ccccc1)c1ccccn1 (stereo not drawn) [Pheniramine] | – | – | negative | – |
| NCCc1ccccc1 [beta-phenylethylamine] | 0.25% | 25.6 ng/mL | negative | – |
| CC(C)(N)Cc1ccccc1 [phentermine] | – | – | – | % Cross-reactivity ([1]; compound at 50,000 ng/ml): 0.009%; Concentration determined by ELISA ([1]; compound at 50,000 ng/ml): 4.67 ng/mL |
| CC(N)C(O)c1ccccc1 (stereo not drawn) [phenylpropanolamine] | 0.06% | 5.8 ng/mL | negative | – |
| NCCc1ccc(O)cc1 [tyramine, 4-hydroxy-phenethylamine] | 0.03% | 3.72 ng/mL | negative | – |
| (+)-methamphetamine [(+)- methylamphetamine] | – | – | – | Lateral flow test result (in words) [2]: picked up; Lateral flow test result [2, 3]: positive |
| (+)-pseudoephedrine | 0.063% | 6.3 ng/mL | negative | – |
| (−)-pseudoephedrine | 0.048% | 4.84 ng/mL | negative | – |

Reference: US7888040B2, “Detection of methamphetamine group drugs” (priority 2004, dated 2011)
